Results: ChEMBL document CHEMBL5370555, “Design, synthesis, and evaluation of PD-1/PD-L1 small-molecule inhibitors bearing a rigid indane scaffold” (Eur J Med Chem, 2023)
The source made the active and inactive calls. The rule behind the calls is not given here.

Key:
[1] = target: Programmed cell death protein 1/Programmed cell death 1 ligand 1 (Homo sapiens, UniProt Q15116+Q9NZQ7); assay: Inhibition of PD-1/PD-L1 (unknown origin) protein-protein interaction incubated for 15 mins by TR-FRET assay; type: protein-complex assay
Sequence of Programmed cell death protein 1/Programmed cell death 1 ligand 1 (Q15116 whole entry): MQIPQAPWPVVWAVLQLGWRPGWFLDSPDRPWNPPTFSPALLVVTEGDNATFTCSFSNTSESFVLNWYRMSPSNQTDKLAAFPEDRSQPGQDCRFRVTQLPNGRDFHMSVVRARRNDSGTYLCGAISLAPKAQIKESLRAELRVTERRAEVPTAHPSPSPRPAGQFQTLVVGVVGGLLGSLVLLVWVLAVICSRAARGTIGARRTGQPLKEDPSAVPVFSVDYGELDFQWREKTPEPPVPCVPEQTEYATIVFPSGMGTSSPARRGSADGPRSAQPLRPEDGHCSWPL
Sequence of Programmed cell death protein 1/Programmed cell death 1 ligand 1 (Q9NZQ7 whole entry): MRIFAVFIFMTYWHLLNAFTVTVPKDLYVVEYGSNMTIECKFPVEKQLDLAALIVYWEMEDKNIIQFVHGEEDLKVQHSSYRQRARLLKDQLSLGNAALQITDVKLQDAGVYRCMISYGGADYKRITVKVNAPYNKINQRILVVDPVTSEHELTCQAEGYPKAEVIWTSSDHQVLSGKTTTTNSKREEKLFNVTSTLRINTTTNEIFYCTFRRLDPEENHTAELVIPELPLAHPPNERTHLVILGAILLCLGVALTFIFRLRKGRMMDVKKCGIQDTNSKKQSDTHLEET

MDA-MB-231 [2] = assay: (§1) Antitumor immunity against human MDA-MB-231 cells cocultured with CD3/CD28/CD2 T cell activator stimulated human PBMC cells assessed as killing activity cell mortality rate at 0.5 uM pre-treated with compound for 2 hrs followed by addition of CD3/CD28/CD2 T cell activator stimulated human PBMC cells and measured after 12 hrs relative to control; type: functional; conditions: time 14 hrs
MDA-MB-231 [3] = assay: as §1, with “activity” for “activity cell mortality rate”, “0.25 to 1” for “0.5”, “hrs” for “hrs relative to control”; type: functional, cell-based; conditions: dose 0.25-1 µM, time 14.0 hrs
RKO = assay: Cytotoxicity against human RKO cells at 8 uM incubated for 24 hrs by CCK-8 method; type: functional, cell-based
Jurkat [4] = assay: Restoration of PD-L1 mediated IFN-gamma release in anti-CD3/CD28 stimulated human Jurkat cells incubated for 24 hrs by ELISA method; type: functional, cell-based; conditions: dose 0.25-2 µM
Jurkat [5] = assay: Restoration of PD-L1 mediated IFN-gamma release in anti-CD3/CD28 stimulated human Jurkat cells at 0.5 uM incubated for 24 hrs by ELISA method; type: functional, cell-based
Jurkat [6] = assay: Cytotoxicity against human Jurkat cells at < 8 uM incubated for 24 hrs by CCK-8 method; type: functional, cell-based
MDA-MB-231 [7] = assay: Cytotoxicity against human MDA-MB-231 cells at 1.0 uM incubated for 24 hrs by CCK-8 method; type: functional, cell-based
MDA-MB-231 [8] = assay: Cytotoxicity against human MDA-MB-231 cells at 8 uM incubated for 24 hrs by CCK-8 method; type: functional, cell-based
PBMC = assay: Cytotoxicity against human PBMC cells at < 8 uM incubated for 24 hrs by CCK-8 method; type: toxicity, cell-based

Question: `COc1nc(O[C@@H]2CCc3c(-c4ccccc4)cccc32)ccc1CNCCO` was tested. Which IC50 [1] did it give?
Answer: Its IC50 is 57.8 nM.

Question: Which IC50 [1] does the source give for `COc1nc(O[C@H]2CCc3c(-c4ccccc4)cccc32)ccc1CNCCNC(C)=O` here?
Answer: Its IC50 is 21 nM.

Question: Which IC50 [1] does the source give for `COc1nc(O[C@H]2CCCc3c(-c4ccccc4)cccc32)ccc1CNCCNC(C)=O` here?
Answer: The IC50 was 47.6 nM.

Question: With `COc1nc(O[C@H]2CCc3c(-c4ccc5[nH]ccc5c4)cccc32)c(Cl)cc1CNCCO` as the compound, how does the IC50 [1] read?
Answer: Its IC50 is > 100 nM.

Question: With `COc1nc(O[C@H]2CCc3c(-c4ccc5c(c4)OCCO5)cccc32)c(Cl)cc1CN1CC[C@H](C(=O)O)C1` as the compound, how does the IC50 [1] read?
Answer: The IC50 was 16.4 nM.

Question: With `COCCNCc1cc(Cl)c(O[C@H]2CCc3c(-c4ccc5c(c4)OCCO5)cccc32)nc1OC` as the compound, how does the IC50 [1] read?
Answer: Its IC50 is 43.1 nM.

Question: `COc1nc(O[C@H]2CCc3c(-c4ccc5c(c4)OCCO5)cccc32)c(Cl)cc1CNCCC(N)=O` was tested. Which IC50 [1] did it give?
Answer: Its IC50 is 20.3 nM.

Question: How did the IC50 [1] turn out when `COc1nc(O[C@H]2CCc3c(-c4ccc(F)c(F)c4)cccc32)c(Cl)cc1CNCCO` was run?
Answer: Its IC50 is 55.6 nM.

Question: With `COc1nc(O[C@@H]2CCc3c(-c4ccccc4)cccc32)ccc1CNCCNC(C)=O` as the compound, how does the IC50 [1] read?
Answer: Its IC50 is 84.8 nM.

Question: How did the IC50 [1] turn out when `COc1nc(O[C@H]2CCc3c(-c4ccc5c(c4)OCCO5)cccc32)c(Cl)cc1CN1CC[C@@H](O)C1` was run?
Answer: The IC50 was 69.4 nM.

Question: `COc1nc(O[C@H]2CCc3c(-c4ccc5c(c4)OCCO5)cccc32)c(Cl)cc1CN1CC[C@H](O)C1` was tested. Which IC50 [1] did it give?
Answer: Its IC50 is 18 nM.

Question: Which IC50 [1] does the source give for `COc1nc(O[C@H]2CCc3c(-c4ccccc4)cccc32)ccc1CNCCO` here?
Answer: The IC50 was 24.4 nM.

Question: How did the IC50 [1] turn out when `COc1nc(O[C@H]2CCc3c(-c4ccc5c(c4)OCCO5)cccc32)c(Cl)cc1CNC[C@@H](O)CC(=O)O` was run?
Answer: The IC50 was 14 nM.

Question: How did the mortality at 0.5 µM (MDA-MB-231 [2]) turn out when `COc1nc(OCc2cccc(-c3ccccc3)c2C)ccc1CNCCNC(C)=O` was run?
Answer: The mortality at 0.5 µM was 45.1%.

Question: Which IC50 [1] does the source give for `COc1nc(O[C@H]2CCc3c(-c4ccc(F)cc4)cccc32)c(Cl)cc1CNCCO` here?
Answer: Its IC50 is 37.8 nM.

Question: `COc1nc(O[C@H]2CCc3c(-c4ccc5ccccc5c4)cccc32)c(Cl)cc1CNCCO` was tested. Which IC50 [1] did it give?
Answer: The IC50 was > 100 nM.

Question: How did the IC50 [1] turn out when `COc1nc(O[C@@H]2CCc3c(-c4ccc5c(c4)OCCO5)cccc32)c(Cl)cc1CN1CC(O)C1` was run?
Answer: Its IC50 is 19.6 nM.

Question: Which IC50 [1] does the source give for `COc1nc(O[C@H]2CCc3c(-c4cccc(F)c4)cccc32)c(Cl)cc1CNCCO` here?
Answer: The IC50 was 24.7 nM.

Question: `COc1nc(O[C@H]2CCc3c(-c4ccc5c(c4)OCCO5)cccc32)c(Cl)cc1CNCCO` was tested. Which IC50 [1] did it give?
Answer: The IC50 was 10.2 nM.

Question: For `COc1nc(O[C@H]2CCc3c(-c4ccc5c(c4)OCCO5)cccc32)c(Br)cc1CNCCO`, which IC50 [1] is on record?
Answer: Its IC50 is 51 nM.

Question: Which IC50 [1] does the source give for `COc1nc(O[C@H]2CCc3c(-c4ccc5c(c4)OCCO5)cccc32)c(Cl)cc1CNC[C@@H]1CCC(=O)N1` here?
Answer: Its IC50 is 15.7 nM.

Question: For `COCCOc1cccc(-c2cccc3c2CC[C@@H]3Oc2nc(OC)c(CNCCO)cc2Cl)c1`, which IC50 [1] is on record?
Answer: The IC50 was 94.5 nM.

Question: For `COc1nc(O[C@H]2CCc3c(-c4ccccc4)cccc32)c(Cl)cc1CNCCO`, which IC50 [1] is on record?
Answer: Its IC50 is 7.5 nM.

Question: With `COc1nc(O[C@H]2CCc3c(-c4ccc5c(c4)OCO5)cccc32)c(Cl)cc1CNCCO` as the compound, how does the IC50 [1] read?
Answer: The IC50 was 24.9 nM.

Question: With `COc1nc(O[C@H]2CCc3c(-c4ccc5c(c4)OCCO5)cccc32)c(Cl)cc1CNCCNC(C)=O` as the compound, how does the IC50 [1] read?
Answer: The IC50 was 16.3 nM.

Question: Which Activity (MDA-MB-231 [3]) does the source give for `COc1nc(O[C@H]2CCc3c(-c4ccccc4F)cccc32)c(Cl)cc1CNCCO` here?
Answer: The Activity was “Active”.

Question: And the Activity (RKO)?
Answer: The Activity was “Active”.

Question: And the IC50 [1]?
Answer: Its IC50 is 2.2 nM.

Question: And the mortality at 0.5 µM (MDA-MB-231 [2])?
Answer: Its mortality at 0.5 µM is 40.9%.

Question: What about the Activity (Jurkat [4]) of the same compound?
Answer: The Activity was “Dose-Dependent Effect”.

Question: What about the Activity (Jurkat [5]) of the same compound?
Answer: Its Activity is “Active”.

Question: What about the Activity (Jurkat [6]) of the same compound?
Answer: The Activity was “Active”.

Question: And the Activity (MDA-MB-231 [7])?
Answer: Its Activity is “inactive”.

Question: What about the Activity (MDA-MB-231 [8]) of the same compound?
Answer: Its Activity is “Active”.

Question: What about the Activity (PBMC) of the same compound?
Answer: Its Activity is “Non-Toxic”.

Question: For `COc1nc(O[C@H]2CCc3c(-c4ccc5c(c4)OCCO5)cccc32)c(Cl)cc1CNCCN(C)C`, which IC50 [1] is on record?
Answer: Its IC50 is 46.2 nM.

Question: For `COc1nc(O[C@H]2CCc3c(-c4ccc5c(c4)OCCO5)cccc32)c(Cl)cc1CNCC(F)(F)F`, which IC50 [1] is on record?
Answer: The IC50 was 67 nM.

Question: Which IC50 [1] does the source give for `COc1nc(O[C@H]2CCCc3c(-c4ccccc4)cccc32)ccc1CNCCO` here?
Answer: The IC50 was > 100 nM.

Question: For `COc1cccc(-c2cccc3c2CC[C@@H]3Oc2nc(OC)c(CNCCO)cc2Cl)c1`, which IC50 [1] is on record?
Answer: Its IC50 is > 100 nM.

Question: Which IC50 [1] does the source give for `COc1ccc(-c2cccc3c2CC[C@@H]3Oc2nc(OC)c(CNCCO)cc2Cl)cc1OC` here?
Answer: The IC50 was > 100 nM.

Question: `COc1nc(O[C@H]2CCc3c(-c4ccc5c(c4)OCCO5)cccc32)c(Cl)cc1CNC[C@@H](O)CO` was tested. Which IC50 [1] did it give?
Answer: Its IC50 is 13.3 nM.
